In one experiment the test system is NF-κB. Description: NF-κB inhibition assay, TNF-α stimulated HEK293/NF-κB-luc luciferase reporter cells. It is filed as cell-based. Particulars: TNF-α (20 ng/mL) induced, mean ± SD of three independent measurements. As to the method: NF-κB inhibitory activity was assessed using a HEK293/NF-κB-luc cell line (Panomics, Fremont, CA) as previously described (Ndongo et al. [2017]). Briefly, cells were cultured at 37 °C and 5% CO2 atmosphere in high glucose Dulbecco's modified Eagle's medium (ThermoFisher Scientific) with 100 IU/mL penicillin, 100 μg/mL streptomycin, 100 μg/mL hygromycin B (ThermoFisher Scientific) and 10% foetal bovine serum (Biowest, Nuaillé, France). The day before the assay, cells were treated for 1 h with 2.5 μM of Cell Tracker Green CMFDA (ThermoFisher Scientific), a fluorescent dye used to quantify cell viability, in FBS-free medium. Then, 10^4 cells/well were seeded in 96-well plates and incubated overnight. After that, cells were treated with either the vehicle control (0.5% DMSO in culture medium) or the samples and stimulated for 5 h with 20 ng/mL of TNF-α (Sigma-Aldrich, Saint Louis, MO). Finally, cells were lysed with reporter lysis buffer (Promega, Madison, WI) and fluorescence signals were read on a Cytation 3 multimode plate reader (Biotek, Winooski, VT). Luciferase assay reagent (Promega) was then added to each well using the auto-injector and the luminescence signals were read. The fluorescence signal was used to normalize the luminescence signal for each well to limit the influence of cell toxicity in luminescence signal intensity. Relative NF-κB activity was quantified by comparing the normalized luminescence signal of vehicle treated nonstimulated cells with the one of vehicle treated stimulated cells. All pure compounds were first screened at 20 μM. Compounds able to inhibit more than 50% of TNF-α induced NF-κB activity at this concentration were considered as active and were selected for calculation of their IC50. Nonlinear regression (with sigmoidal dose response) was used to calculate the IC50 values using GraphPad Prism. Each compound was tested in duplicate and three independent experiments were performed using parthenolide as positive control.

For experiment [1], the system named is MM-CSCs (multiple myeloma cancer stem cells). Description: Antiproliferative activity, MTT assay. To be noted: 72 h; for IC50: Homo sapiens, mean ± SD of three measurements. Format: cell-based, Human. As to the method:
(§1) Human multiple myeloma cancer stem cells (MM-CSCs) derived from the bone marrow of a MM patient, were obtained from Celprogen (Torrance, CA). MM-CSCs were used between passages 4 and 12 for experiments. The tumour plasma cells RPMI 8226 were obtained from LGC standards (Middlesex, United Kingdom). RPMI 8226 cells were used between passages 10 and 25 for experiments. The two cell lines were cultured at 37 °C and 5% CO2 atmosphere in RPMI 1640 culture medium supplemented with 10% foetal bovine serum (Biowest), 100 IU/mL penicillin and 250 μg/mL streptomycin. MTT and XTT assays were used to evaluate the antiproliferative activity of the pure compounds in MM-CSCs and RPMI 8226 cells, respectively (Issa and Cuendet [2017]). MM-CSCs were seeded in 96 well plates at a density of 5,000 cells per well and allowed to adhere for 24 h, whereas RPMI 8226 cells were plated at a density of 15,000 cells per well and treated immediately. MM-CSCs and RPMI 8226 cells were treated with increasing concentrations (0–20 µM) of compounds for 72 h. Twenty microlitres of MTT solution (5 mg/mL) or 50 μL XTT solution (1 mg/mL) were added in each well and incubated for 2 h (MTT assay) or 4 h (XTT assay). The media and MTT solution were aspirated and the cells containing formazan were solubilized in 100 µL DMSO. Absorbance was measured at 590 nm (MTT assay) or 450 nm (XTT assay). The percentage of cell viability was calculated as the absorbance of each well was divided by that of the vehicle control wells (0.5% DMSO in culture medium) and multiplied by 100. IC50 values were calculated using GraphPad Prism. Each compound was tested in triplicate and three independent experiments were performed using bortezomib as positive control.

A further experiment relates to RPMI 8226 cells. Briefly: Antiproliferative activity, XTT assay. Format: cell-based. Particulars: for Antiproliferative activity against RPMI 8226 (in words): 72 h; for IC50: Homo sapiens, RPMI-8226, 72 h, mean ± SD of three measurements. As to the method:
as §1

Experiment [2] can be described thus: DPPH radical scavenging assay. Particulars: pure compound. On the procedure: The DPPH radical scavenging activity was carried out as described previously (Şahin et al. [2004]) with slight modifications. Samples (1–200 µg/mL) were added to a 60-μM methanol solution of DPPH. The absorbance of the solution was measured at 517 nm after a 30-min incubation period at room temperature in the dark.

A short description of experiment [3]: NO radical scavenging assay. Particulars: pure compound.

“Also recorded” adds a separate entry of the source.

The text below walks through data of publication PMC6249549, “Bioactive metabolites from the leaves of Withania adpressa” (Pharmaceutical Biology, 2018).

In the experiment on NF-κB (Homo sapiens, HEK293, 5 h), `C=C1C(=O)O[C@H]2[C@H]1CC/C(C)=C/CC[C@@]1(C)O[C@@H]21` [Parthenolide, parthenolide, reference compound] came in with an IC50 of 530 ± 10 nM.
Take `CC1=C(C)C(=O)O[C@@H]([C@](C)(O)[C@]2(O)CC[C@@]3(O)[C@@H]4CC=C5CC=CC(=O)[C@]5(C)[C@H]4CC[C@]23C)C1` [Compound 1, withanolide F]: in experiment [1], the “Antiproliferative activity against MM-CSCs (in words)” value is “low µM antiproliferative activity; also recorded: showed activity” and the IC50 was found to be 5300 ± 900 nM. In the experiment on RPMI 8226 cells, the “Antiproliferative activity against RPMI 8226 (in words)” value is given as “low µM antiproliferative activity; also recorded: showed activity” and the IC50 was determined as 100 ± 10 nM. This compound also showed an IC50 with NF-κB (Homo sapiens, HEK293, 5 h) of 1200 ± 200 nM.
For `CC(C)C[C@H](NC(=O)[C@H](Cc1ccccc1)NC(=O)c1cnccn1)B(O)O` [Bortezomib, bortezomib, reference compound], the IC50 came out at 9.1 ± 1.4 nM in experiment [1] and 3.3 ± 0.8 nM with RPMI 8226 cells.
In the case of `CC1=C(C)C(=O)OC(C(C)(O)C2(O)CCC3(O)C4CC=C5CC(OC6OC(CO)C(OC7OC(C)C(O)C(O)C7O)C(O)C6O)CC(=O)C5(C)C4CCC32C)C1` [Compound 5, (14R,17S,20R,22R)-3β-O-(α-L-rhamnopyranosyl-(1→4)-β-D-glucopyranosyl)-14,17,20-trihydroxy-1-oxo-witha-5,24-dienolide], the IC50 in experiment [1] was greater than 20000 nM; in the experiment with RPMI 8226 cells it was 3200 ± 400 nM; with NF-κB (Homo sapiens, HEK293, 5 h), greater than 20000 nM.
In the case of `CC1=C(C)C(=O)OC(C(C)(O)C2(O)CCC3(O)C4CC=C5CC(OC6OC(CO)C(O)C(O)C6O)CC(=O)C5(C)C4CCC32C)C1` (stereo not shown) [Compound 3, coagulin L], the IC50 in experiment [1] was greater than 20000 nM; in the experiment on RPMI 8226 cells, 3600 ± 600 nM; with NF-κB (Homo sapiens, HEK293, 5 h), greater than 20000 nM.
Take `C[C@@H]1O[C@@H](OC[C@H]2O[C@@H](Oc3c(-c4ccc(O)cc4)oc4cc(O)cc(O)c4c3=O)[C@H](O)[C@@H](O)[C@@H]2O)[C@H](O)[C@H](O)[C@H]1O` [Compound 4, nicotiflorin]: the IC50 in experiment [1] is greater than 20000 nM; with RPMI 8226 cells, 7100 ± 100 nM; in experiment [2] it was 35300 nM; in experiment [3], 41300 nM; with NF-κB (Homo sapiens, HEK293, 5 h) it was greater than 20000 nM.
On to `CC1=C(CO)C(=O)O[C@@H]([C@@H](C)[C@H]2CC[C@H]3[C@@H]4C[C@H]5O[C@]56[C@@H](O)C=CC(=O)[C@]6(C)[C@H]4CC[C@]23C)C1` [Compound 2, withaferin A], for which the “Antiproliferative activity against MM-CSCs (in words)” value in experiment [1] is “low µM antiproliferative activity”. Also, the IC50 in experiment [1] was 330 ± 20 nM; in the experiment on RPMI 8226 cells, 170 ± 30 nM; with NF-κB (Homo sapiens, HEK293, 5 h), 47 nM; in the experiment on NF-κB (5 h) it was 50 ± 10 nM. Besides, the “Antiproliferative activity against RPMI 8226 (in words)” value in the experiment on RPMI 8226 cells is listed as “low µM antiproliferative activity”.
